# Data from US20190144368A1, “Compounds and compositions for biofilm prevention” (INHIBIO AS, priority 2016, published 2019).
# What was measured:
# Format in all cases: cell-based
# [1] = system: Listeria monocytogenes (six strains); test: Biofilm formation in microtiter plates, Listeria; settings: 24 hours at 35 °C
# Procedure: Six strains of Listeria monocytogenes were used in this study isolated from food research. The strains were recovered in 200 μl TSB broth in a microtiter plate and incubated at 37° C. for 24 hours. A total of 5 μl of the bacterial suspension was transferred to a 96 wells polystyrene microtiter plate (Thermo scientific Nucleon Delta surface) together with 200 μl medium (LB^wo/NaCl) with 1,3-cyclohexanedione (dissolved to 0,625 mg/ml, 2.5 mg/ml, 5 mg/ml and 10 mg/ml) to each well. Each strain was added in duplex and incubated at 35° C. for 24 hours. After incubation, OD595 was measured before the plates were gently washed one time with 200 μl tap water. This was repeated once. The plates were dried in room temperature before addition of 200 μl 0, 1% crystal violet (Sigma-Aldrich). After 30 minutes incubation in room temperature, the plates were washed twice with 200 μl tap water and once with 240 μl. This was followed by the addition of 200 μl ethanol:acetone (70:30 w:w) and incubated for another 10 minutes in room temperature. OD595 was measured in a microplate photometer (Multiscan EX) after the bound dye was dissolved using ethanol:acetone. For each strain, the result was calculated by subtracting the average OD595 of the two parallels of the control (test broth only) from the average OD595 of the two parallels of sample. Three independent experiments were performed. The average of the 6 strains as well as the average between the experiments was calculated.
# [2] = system: Gram positive bacteria (three Staphylococcus aureus strains); test: Biofilm formation in polystyrene microtiter plates (crystal violet, OD595), Gram positive bacteria; settings: one day at 37 °C
# Procedure: All experiments were performed by using sterile 96-wells polystyrene microtiter plates (Nunc, Nuncleon, Roskilde, Denmark) under conditions promoting biofilm formation by the different bacterial genera. The Inhibio compound preparations of the invention; 1,3-cyclohexanedione, 1,4-cyclohexanedione, cyclopentanone, 5-ethylcyclohexane-1,3-dione and 5-methyl-1,3 cyclohexanedione 98% were solved directly in Tryptic Soy Broth (TSB) 1+1 or Liquid Microbiology Broth (LB) broth without NaCl (LB^wo/NaCl) to obtain the test concentrations, i.e. from 1 mg/ml to 10 mg/ml.
# Three Staphylococcus aureus strains of animal origin were used in this study. All strains were stored at −80° C. in Brain Heart Infusion Broth (BHI) (Difco, BD, Franklin Lakes, N.J., USA) supplemented with 15% glycerine (Merck KGaA, Darmstadt, Germany) and were recovered on blood agar at 37.0±1.0° C. The bacterial cultures were then transferred into TSB and were incubated statically overnight at 37.0±1.0° C. to obtain an overnight working culture. A total of 2 μl of this suspension was transferred to each 96 wells of polystyrene microtiter plates (Nunc, Nuncleon, Roskilde, Denmark) containing 198 μl TSB 1+1 with dissolved Inhibio compounds in the following concentrations: 0 mg/ml, 1 mg/ml and 10 mg/ml for 1,3-cyclohexanedione; 0 mg/ml and 10 mg/ml for 1,4-cyclohexanedione; and 0 mg/ml, 1 mg/ml, 2 mg/ml and 10 mg/ml for 5-ethylcyclohexane-1,3-dione and 5-Methyl-1,3-cyclohexanedione in the total amount of broth. Three parallels of each strain were used and the microtiter plates were incubated statically for one day, at 37±1.0° C. After incubation, OD595 was measured in a microplate photometer (Multiscan EX; Thermo Fisher Scientific Inc, Waltham, Mass., USA) before the plates were gently washed three times with 290 μl tap water. The plates were dried in room temperature before addition of 220 μl 1% crystal violet (Sigma-Aldrich, St. Louis, Mo., USA). After 30 minutes incubation in room temperature, the plates were washed three times with tap water before the addition of 220 μl ethanol:acetone (70:30 w:w) to dissolve the bound dye. The plates were incubated for 10 minutes in room temperature before OD595 was measured after the bound dye was dissolved using ethanol:acetone. For each strain, the result was calculated by subtracting the median OD595 of the three parallels of the control (test broth only) from the median OD595 of the three parallels of sample. Further, the average result of all three Gram positive strains included in the study were calculated. Three independent experiments were performed and the average was evaluated.
# Salmonella (one strain) = test: Effect of increased temperature on 1,3-cyclohexanedione: biofilm formation after heating the solution; settings: 72 hours at 20 °C
# Procedure: The experiment was performed using 1,3-cyclohexanedione at a concentration of 1 mg/ml. One strain of Salmonella was used in this study. All strains were stored at −80° C. in BHI (Difco, BD, Franklin Lakes, N.J., USA) supplemented […] with 15% glycerine (Merck KGaA, Darmstadt, Germany) and were recovered on blood agar at 37.0±1.0° C. The bacterial culture was transferred into LB broth and was incubated statically overnight at 37.0±1.0° C. to obtain an overnight working culture. 1,3-cyclohexanedione was diluted in LB wo/NaCl at a concentration of 1 mg/ml and divided into 4 tubes. The tubes were heated, for two minutes, to 80° C., 90° C., 100° C. and the last tube was not heated and included as a control. 100 μl from each tube was added to a sterile 96-wells polystyrene microtiter plates (Nunc, Nuncleon, Roskilde, Denmark) together with 30 μl bacterial culture or 30 μl LB^wo/NaCl in the case of the blank controls. The plates were incubated for 72 hours at 20° C. The plate was emptied and washed twice using 200 μl tap water in each well each time. This was followed by the addition of 140 μl 1% Crystal violet to each well and, after 30 minutes, the plate was again emptied and washed 3 times using 200 μl tap water. 140 μl etanol:acetone 70:30 was added and OD595 was measured after 10 minutes. For each strain, the result was calculated by subtracting the median OD595 of the three parallels of the control (test broth only) from the median OD595 of the three parallels of sample. At least two experiments were performed and the average was estimated.
smiles,measurement,setting,value
"O=C1CCCC(=O)C1 [1,3-cyclohexanedione]",decrease in biofilm formation in percentage of the control,[1]; 0.625 mg/ml,27%
same,decrease in biofilm formation in percentage of the control,[1]; 2.5 mg/ml,40%
same,decrease in biofilm formation in percentage of the control,[1]; 5 mg/ml,53%
same,decrease in biofilm formation in percentage of the control,[1]; 10 mg/ml,70%
same,"decrease in biofilm formation, percentage of the control",[2]; 1 mg/ml,74%
same,"decrease in biofilm formation, percentage of the control",[2]; 10 mg/ml,98%
same,decrease in biofilm formation compared to the control,Salmonella (one strain); 1 mg/ml solution heated to 80 °C for two minutes,38%
same,decrease in biofilm formation compared to the control,Salmonella (one strain); 1 mg/ml solution heated to 90 °C for two minutes,40%
same,decrease in biofilm formation compared to the control,Salmonella (one strain); 1 mg/ml solution heated to 100 °C for two minutes,28%
same,decrease in biofilm formation compared to the control,Salmonella (one strain); 1 mg/ml unheated solution,46%
